Measurements as given in article PMC9143450, “Oxonitrogenated Derivatives of Eremophilans and Eudesmans: Antiproliferative and Anti-Trypanosoma cruzi Activity” (Molecules, 2022).

Assays:
[1] = test system: Trypanosoma cruzi epimastigotes (RA strain); experiment: In vitro anti-Trypanosoma cruzi assay ((3H) thymidine uptake); assay type: cell-based; conditions: for Selectivity Index on T. cruzi epimastigotes: CC50 splenocytes / IC50 epimastigotes; for IC50: Trypanosoma cruzi, epimastigotes (RA strain), ± SD; for Trypanocidal activity (in words): T. cruzi
Procedure: Trypanosoma cruzi epimastigotes (RA strain, from discrete typing unit (DTU) VI) were grown in a biphasic medium. Cultures were maintained by weekly passages at 28 °C [18].
The growth inhibition of T. cruzi epimastigotes was evaluated by a (^3H) thymidine uptake assay as previously described. Natural sesquiterpenes and derivatives were evaluated at concentrations ranging from 1.5 to 50 µg/mL. Benznidazole (Active Pharmaceutical Ingredient) was used as positive control (Elea). The percentage of inhibition was calculated as 100 = {((cpm of treated parasites)/(cpm of untreated parasites)) × 100}.
Figure 5 Effect of the natural sesquiterpene tessaric acid (1), ilicic acid (2), and ilicic alcohol (3) and their derivatives on T. cruzi. Epimastigotes (RA strain) were cultured in the presence of the compounds (50–1.5 µg/mL). Determinations were performed by triplicate. The results are expressed as the mean ± SD. (A) Effect of tessaric acid and derivatives on epimastigotes; (B) Effect of ilicic acid and derivatives on epimastigotes; (C) Effect of ilicic alcohol and derivatives on epimastigotes.

WiDr = experiment: Antiproliferative SRB assay (NCI protocol), WiDr; assay type: cell-based, human; conditions: for Selectivity index (SI) on tumor cells: CC50 splenocytes / GI50 WiDr; for GI50: Homo sapiens, WiDr (colon), 48 h drug exposure, SRB, ± SD
Procedure: (§1) In vitro antiproliferative activity was evaluated using the protocol of the National Cancer Institute (NCI) after 48 h of drug exposure using the sulforhodamine B (SRB) assay.
(§2) The following human solid tumor cell lines were used in this study: HBL-100 (breast), HeLa (cervix), SW1573 (non-small cell lung), T-47D (breast), A549 (lung), and WiDr (colon). These cell lines were a kind gift from Prof. G. J. Peters (VU Medical Center, Amsterdam, The Netherlands). Cells were maintained in 25 cm^2 culture flasks in RPMI 1640 supplemented with 5% heat-inactivated fetal calf serum and 2 mM L-glutamine in a 37 °C, 5% CO2, 95% humidified air incubator. Exponentially growing cells were trypsinized and resuspended in antibiotic containing medium (100 units penicillin G and 0.1 mg of streptomycin per mL). Single cell suspensions displaying > 97% viability by trypan blue dye exclusion test were subsequently counted. After counting, dilutions were made to give the appropriate cell densities for inoculation onto 96-well microtiter plates. Cells were inoculated in a volume of 100 μL per well at densities of 5000 (WiDr and T-47D), and 2500 (A549, HeLa, SW1573 and HBL-100) cells per well, based on their doubling times.
(§3) Chemosensitivity tests were performed using the SRB assay of the NCI with slight modifications. Briefly, pure compounds were initially dissolved in DMSO at 400 times the desired final maximum test concentration. Control cells were exposed to an equivalent concentration of DMSO (0.25% v/v, negative control). Each agent was tested in triplicates at different dilutions in the range 1–100 μM. Drug treatment started on day 1 after plating. Drug incubation periods were 48 h, after which cells were precipitated with 25 μL of ice-cold 50% (w/v) trichloroacetic acid and fixed for 60 min at 4 °C. Then, the SRB assay was performed. The optical density (OD) of each well was measured at 530 nm, using BioTek’s PowerWave XS Absorbance Microplate Reader. Values were corrected for background OD from wells containing only culture medium. The percentage growth (PG) was calculated with respect to untreated control cells (C) at each level of drug concentrations based on the difference in OD at the start time (T0) and at the end of drug exposure (T), according to NCI formulas. Therefore, if T is greater than or equal to T0, the calculation is 100 × ((T − T0)/(C − T0)). If T is lower than T0, denoting cell death, the calculation is 100 × ((T − T0)/(T0)). The effect is defined as the growth percentage, where 50% growth inhibition (GI50) represents the concentration at which PG is +50. Based on these calculations, a PG value of 0 corresponds to the number of cells present at the beginning of drug exposure, while negative PG values denote net cell death.

HeLa = experiment: Antiproliferative SRB assay (NCI protocol), HeLa; assay type: cell-based, human; conditions: for Selectivity index (SI) on tumor cells: CC50 splenocytes / GI50 HeLa; for GI50: Homo sapiens, HeLa (cervix), 48 h drug exposure, SRB, ± SD
Procedure: as §1, §2, §3

T-47D = experiment: Antiproliferative SRB assay (NCI protocol), T-47D; assay type: cell-based, human; conditions: for Selectivity index (SI) on tumor cells: CC50 splenocytes / GI50 T-47D; for GI50: Homo sapiens, T47D, T-47D (breast), 48 h drug exposure, SRB, ± SD
Procedure: as §1, §2, §3

[2] = Cytotoxicity on primary cell culture (flow cytometry, PI); assay type: cell-based; conditions: Balb/c, mouse, primary splenocytes (spleen cells), ± SD, read-out: Cytotoxic activity on spleen cells (CC50)
Procedure: The cytotoxicity of the natural sesquiterpenes (1–3) and derivatives (4–19) was determined on primary cell cultures (splenocytes obtained from Balb/c mouse). […] Derivatives of tessaric acid have shown an improvement in CC50 values in comparison with the natural sesquiterpene 1. […] All the derivatives synthesized from alcohol ilicic (compounds 10–19) were more toxic to mammalian cells than the natural compound (3).
The cytotoxicity of the compounds was evaluated on splenocytes obtained from Balb/c mouse (1.5 × 10^5) and incubated with different drug dilutions (5–200 μg/mL) as previously described. Cell death was determined by flow cytometry using a BD FACSaria II cytometer. Cells incubated only with drug vehicle were used as 100% viability control, and death percentage was calculated according to the following formula: Death%=1−(%PI^−cells)drug−treated/(%PI^−cells)100% viability control × 100
The concentration capable of causing 50% cell death (CC50) was determined using a non-linear regression approach.

SW1573 = experiment: Antiproliferative SRB assay (NCI protocol), SW1573; assay type: cell-based, human; conditions: for GI50: Homo sapiens, SW1573 (non-small cell lung), 48 h drug exposure, SRB, ± SD
Procedure: as §1, §2, §3

[3] = test system: HeLa, T-47D, WiDr, A549, HBL-100, and SW1573 cell lines; experiment: Antiproliferative SRB assay, whole panel of human solid tumor cell lines; assay type: cell-based; conditions: for Antiproliferative activity (in words): solid tumor cell lines evaluated
Procedure: as §1, §2, §3

HBL-100 = experiment: Antiproliferative SRB assay (NCI protocol), HBL-100; assay type: cell-based, human; conditions: Homo sapiens; HBL-100 (breast), 48 h drug exposure, SRB; ± SD
Procedure: as §1, §2, §3

A549 = experiment: Antiproliferative SRB assay (NCI protocol), A549; assay type: cell-based, human
Procedure: as §1, §2, §3

Structure (SMILES) | Selectivity Index on T. cruzi epimastigotes [1] | IC50 [1] [µM] | Selectivity index (SI) on tumor cells (WiDr) | GI50 (WiDr) [µM] | Selectivity index (SI) on tumor cells (HeLa) | GI50 (HeLa) [µM] | Selectivity index (SI) on tumor cells (T-47D) | GI50 (T-47D) [µM] | CC50 [2] [µM] | Trypanocidal activity (in words) [1] | GI50 (SW1573) [µM] | Antiproliferative activity (in words) [3] | GI50 (HBL-100) [µM] | GI50 ([3]; Homo sapiens, minimal to maximal GI50 across the cell lines tested, 48 h, SRB, read-out: GI50 values, range over all cell lines tested) [µM] | Selectivity index (SI) on tumor cells (SW1573; CC50 splenocytes / GI50 SW1573) | Selectivity index (SI) on tumor cells (A549; CC50 splenocytes / GI50 A549) | GI50 (A549; Homo sapiens, A549 (lung), 48 h drug exposure, SRB, ± SD) [µM]
C=C(Cn1cc(-c2ccccc2)nn1)[C@@H]1CC[C@@]2(C)CCC[C@@](C)(O)C2C1 (stereo partly shown) [Compound 19] | 3.9 | 48.2 | 4.6 | 41 | 2.4 | 79 | 3.1 | 61 | 187 |  |  |  |  |  |  |  | 
C=C(CO)[C@@H]1CC[C@@]2(C)CCC[C@@](C)(O)[C@@H]2C1 [Compound 3, ilicic alcohol] |  | 156 |  | > 100 |  | > 100 |  | > 100 |  | nor trypanocidal activity | > 100 | did not show antiproliferative activity | > 100 |  |  |  | 
C=C(C(=O)O)[C@@H]1CC[C@@]2(C)CCC[C@@](C)(O)[C@@H]2C1 [Compound 2, ilicic acid] |  | > 198 |  | > 100 |  | > 100 |  | > 100 |  | nor trypanocidal activity | > 100 | did not show antiproliferative activity | > 100 |  |  |  | 
C#CCCCc1cn(CC(=C)[C@@H]2CC[C@@]3(C)CCC[C@@](C)(O)C3C2)nn1 (stereo partly shown) [Compound 17] | 2.7 | 14.8 | 1.3 | 31 | 1.3 | 31 | 1.4 | 29 | 40.4 |  |  |  |  |  |  |  | 
C=C(Cn1cc(CCCCCCCCCC)nn1)[C@@H]1CC[C@@]2(C)CCC[C@@](C)(O)C2C1 (stereo partly shown) [Compound 16] | 9.4 | 8.8 | 6.8 | 12 | 6.3 | 13 | 4.8 | 17 | 82.4 |  |  |  |  | 12 to 17 |  |  | 
C=C(C(=O)N(c1ccccc1)C(C)(C)C(=O)NC(C)(C)C)[C@@H]1CCC2=CC(=O)C[C@H](C)[C@@]2(C)C1 [Compound 4] | 1.1 | 16.3 | 0.2 | 98 | 0.3 | 68 | 0.2 | 95 | 17.3 |  | 57 |  | > 100 |  | 0.3 | 0.25 | 68
